Some results are limits rather than exact numbers.

T1 sequence (P03951 388-625 limits assumed): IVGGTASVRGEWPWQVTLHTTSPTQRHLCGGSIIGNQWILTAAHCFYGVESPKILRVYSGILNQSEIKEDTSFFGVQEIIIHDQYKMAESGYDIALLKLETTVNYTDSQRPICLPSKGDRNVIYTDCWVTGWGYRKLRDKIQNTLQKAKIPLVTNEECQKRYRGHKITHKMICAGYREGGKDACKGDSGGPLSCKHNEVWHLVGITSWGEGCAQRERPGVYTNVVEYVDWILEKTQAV
T1 sequence (P03951 19-387 partner limits assumed): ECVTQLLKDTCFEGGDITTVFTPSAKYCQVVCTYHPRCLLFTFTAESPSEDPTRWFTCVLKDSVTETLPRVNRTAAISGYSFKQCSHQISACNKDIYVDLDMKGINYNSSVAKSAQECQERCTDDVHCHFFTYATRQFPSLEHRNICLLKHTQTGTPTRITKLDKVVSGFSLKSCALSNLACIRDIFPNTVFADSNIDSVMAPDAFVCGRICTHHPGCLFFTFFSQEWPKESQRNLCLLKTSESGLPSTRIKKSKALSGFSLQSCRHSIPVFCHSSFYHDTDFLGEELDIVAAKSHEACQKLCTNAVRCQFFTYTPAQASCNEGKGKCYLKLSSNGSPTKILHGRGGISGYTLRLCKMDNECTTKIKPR

One data set addresses T1, human Factor XIa (Homo sapiens, UniProt P03951).
T1 construct: Enzyme: Factor XIa; 0.25 μM in 50% glycerol (20 μg/mL)
Description: Factor XIa enzyme inhibition assay (IC50, purified enzyme). It counts as biochemical. The note with it: purified enzyme 0.25 nM, substrate 50 μM; read-out: Potency hFXIa IC50. In a few lines: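 Fluorogenic Glp-Pro-Arg-AMC cleavage, 50 μM substrate, 0.25 nM enzyme, in 20 mM Hepes pH 7.4, 150 mM NaCl, 0.02% Tween 20. Serial two-fold compound dilutions from starting concentrations of 20, 2 and 0.2 μM. Read every minute for 30 min at 30° C; IC50 from a four-parameter fit of dose-response.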
The term IC50 denotes the midpoint of a concentration-inhibition curve. In the case of `C[C@@H](NC(=O)N1C(=O)[C@H](Cc2ccnc(N)c2)[C@H]1C(=O)O)C1CCCCC1` [Example 38], the IC50 is below 10 nM.
On the same count and under the same terms, next, `CC(C)C(=O)OCOC(=O)Nc1cc(C[C@H]2C(=O)N(C(=O)N[C@H](C)c3ccc4c(c3)OC(F)(F)O4)[C@@H]2C(=O)O)ccn1` [Example 100]: 100 to 1000 nM; `O=C(O)[C@@H]1[C@@H](CCc2cccc(Cl)c2)C(=O)N1C(=O)N[C@@H](C1CCCCC1)C(F)(F)F` [Example 134]: 100 to 1000 nM.
Same read-out and setting: the value for `Nc1cc(C[C@H]2C(=O)N(C(=O)N[C@@H](C3CCCCC3)C(F)(F)F)[C@@H]2C(=O)O)ccn1` [Example 88] was below 10 nM; that for `C[C@@H](NC(=O)N1C(=O)[C@H](Cc2ccncc2)[C@H]1C(=O)O)c1ccc2c(c1)OC(F)(F)O2` [Example 169] was 100 to 1000 nM.

The target of a further data set is T2, Factor Xa (Homo sapiens, UniProt P00742).
T2 construct: Factor Xa; 0.2 μM in 50% glycerol (9.2 μg/mL)
T2 sequence (P00742 235-488 limits assumed): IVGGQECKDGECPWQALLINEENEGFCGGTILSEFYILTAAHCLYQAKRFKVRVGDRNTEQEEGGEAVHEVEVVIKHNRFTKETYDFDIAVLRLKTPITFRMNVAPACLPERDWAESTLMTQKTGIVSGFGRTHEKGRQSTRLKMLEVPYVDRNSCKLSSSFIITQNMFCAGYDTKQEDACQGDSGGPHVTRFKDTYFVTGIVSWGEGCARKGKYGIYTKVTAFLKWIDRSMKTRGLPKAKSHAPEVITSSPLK
T2 sequence (P00742 41-179 partner limits assumed): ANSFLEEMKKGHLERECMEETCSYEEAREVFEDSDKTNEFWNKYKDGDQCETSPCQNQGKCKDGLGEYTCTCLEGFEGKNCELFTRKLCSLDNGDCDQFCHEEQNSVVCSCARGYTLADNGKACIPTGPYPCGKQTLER
In words: Dose response assay for protease inhibitors: Factor Xa (FXIa fold selectivity). It counts as biochemical. The note with it: fold selectivity for FXIa over Factor Xa.
As for `C[C@@H](NC(=O)N1C(=O)[C@H](Cc2ccnc(N)c2)[C@H]1C(=O)O)C1CCCCC1` [Example 38], the “FXIa Fold Selectivity FXa” value is listed as “I (“I” indicates >1000)”.
The same measure, in the same setting: next, `CC(C)C(=O)OCOC(=O)Nc1cc(C[C@H]2C(=O)N(C(=O)N[C@H](C)c3ccc4c(c3)OC(F)(F)O4)[C@@H]2C(=O)O)ccn1` [Example 100]: “G (“G” indicates 1-500)”.
As to `O=C(O)[C@@H]1[C@@H](CCc2cccc(Cl)c2)C(=O)N1C(=O)N[C@@H](C1CCCCC1)C(F)(F)F` [Example 134], the “FXIa Fold Selectivity FXa” value was “G (“G” indicates 1-500)”.
The same measure, in the same setting: the value for `Nc1cc(C[C@H]2C(=O)N(C(=O)N[C@@H](C3CCCCC3)C(F)(F)F)[C@@H]2C(=O)O)ccn1` [Example 88] was “I (“I” indicates >1000)”; that for `C[C@@H](NC(=O)N1C(=O)[C@H](Cc2ccncc2)[C@H]1C(=O)O)c1ccc2c(c1)OC(F)(F)O2` [Example 169] was “G (“G” indicates 1-500)”.

The next data set addresses T3, Thrombin (Homo sapiens, UniProt P00734).
T3 construct: Thrombin; 0.2 μM in 50% glycerol (7.34 μg/mL)
Description: Dose response assay for protease inhibitors: thrombin (FXIa fold selectivity). In kind it is biochemical. The note with it: fold selectivity for FXIa over thrombin.
Regarding `C[C@@H](NC(=O)N1C(=O)[C@H](Cc2ccnc(N)c2)[C@H]1C(=O)O)C1CCCCC1` [Example 38], the “FXIa Fold Selectivity Thrombin” value is given as “I (“I” indicates >1000)”.
Still for that read-out and setting: next, `CC(C)C(=O)OCOC(=O)Nc1cc(C[C@H]2C(=O)N(C(=O)N[C@H](C)c3ccc4c(c3)OC(F)(F)O4)[C@@H]2C(=O)O)ccn1` [Example 100]: “G (“G” indicates 1-500)”; `O=C(O)[C@@H]1[C@@H](CCc2cccc(Cl)c2)C(=O)N1C(=O)N[C@@H](C1CCCCC1)C(F)(F)F` [Example 134]: “G (“G” indicates 1-500)”.
For the molecule `Nc1cc(C[C@H]2C(=O)N(C(=O)N[C@@H](C3CCCCC3)C(F)(F)F)[C@@H]2C(=O)O)ccn1` [Example 88], the “FXIa Fold Selectivity Thrombin” value is given as “I (“I” indicates >1000)”.
Same read-out and setting: the value for `C[C@@H](NC(=O)N1C(=O)[C@H](Cc2ccncc2)[C@H]1C(=O)O)c1ccc2c(c1)OC(F)(F)O2` [Example 169] was “H (“H” indicates 500-1000)”.

The next data set has as its system Trypsin. In words: Dose response assay for protease inhibitors: trypsin (FXIa fold selectivity). In kind it is biochemical. The note with it: fold selectivity for FXIa over trypsin.
For the molecule `C[C@@H](NC(=O)N1C(=O)[C@H](Cc2ccnc(N)c2)[C@H]1C(=O)O)C1CCCCC1` [Example 38], the “FXIa Fold Selectivity Trypsin” value was “H (“H” indicates 500-1000)”.
Same read-out and setting: the value for `CC(C)C(=O)OCOC(=O)Nc1cc(C[C@H]2C(=O)N(C(=O)N[C@H](C)c3ccc4c(c3)OC(F)(F)O4)[C@@H]2C(=O)O)ccn1` [Example 100] was “G (“G” indicates 1-500)”; that for `O=C(O)[C@@H]1[C@@H](CCc2cccc(Cl)c2)C(=O)N1C(=O)N[C@@H](C1CCCCC1)C(F)(F)F` [Example 134] was “G (“G” indicates 1-500)”; that for `Nc1cc(C[C@H]2C(=O)N(C(=O)N[C@@H](C3CCCCC3)C(F)(F)F)[C@@H]2C(=O)O)ccn1` [Example 88] was “G (“G” indicates 1-500)”.
Still for that read-out and setting: next, `C[C@@H](NC(=O)N1C(=O)[C@H](Cc2ccncc2)[C@H]1C(=O)O)c1ccc2c(c1)OC(F)(F)O2` [Example 169]: “G (“G” indicates 1-500)”.

Tested on in a further data set: not listed separately
Description: β-Lactam stability in rat plasma. In kind it is in vitro ADME. The note with it: normal rat plasma, room temperature; read-out: Rat Plasma Stability (T1/2; min). The method in brief: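 Compounds incubated in normal rat plasma at room temperature, sampled into acetonitrile from 2 to 480 min. Supernatants analysed by HPLC-MS on C18, extracted ion chromatograms of parent and parent+18 (H2O adduct) integrated; T½ = ln(2)/k from single-phase exponential decay fit.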
In the case of `C[C@@H](NC(=O)N1C(=O)[C@H](Cc2ccnc(N)c2)[C@H]1C(=O)O)C1CCCCC1` [Example 38], the half-life was above 1.67 h.
Consider `O=C(O)[C@@H]1[C@@H](CCc2cccc(Cl)c2)C(=O)N1C(=O)N[C@@H](C1CCCCC1)C(F)(F)F` [Example 134], for which the half-life was above 1.67 h.
For `Nc1cc(C[C@H]2C(=O)N(C(=O)N[C@@H](C3CCCCC3)C(F)(F)F)[C@@H]2C(=O)O)ccn1` [Example 88], the half-life was above 1.67 h.
For the molecule `C[C@@H](NC(=O)N1C(=O)[C@H](Cc2ccncc2)[C@H]1C(=O)O)c1ccc2c(c1)OC(F)(F)O2` [Example 169], the half-life is above 1.67 h.

Tested on in another data set: not listed separately
In words: in vitro. The note with it: both, human, plasma, pH 7.4. How it is done:
The following procedure was used to determine the plasma protein binding of a test compound in pooled plasma from human (mixed gender) via equilibrium dialysis in a 96-well plate format. The dialysate compartment is loaded with phosphate-buffered saline (pH 7.4) and the sample side is loaded with plasma spiked with the test compound at a concentration of 10 μM. After loading, samples are covered and incubated for 4 hours at 37° C. After incubation, each compartment is sampled, diluted with acetonitrile/buffer and centrifuged. The supernatants are analyzed by HPLC-MS/MS. The amount measured in the plasma compartment includes both free and bound drug, while that on the buffer side represents free drug only; the differences are used to calculate the percentage plasma protein bound.
Usually fraction unbound stands for the share of the substance not bound to proteins or other matrix. The low end stands for extensive binding, the high end for weak binding. In turn, `C[C@@H](NC(=O)N1C(=O)[C@H](Cc2ccnc(N)c2)[C@H]1C(=O)O)C1CCCCC1` [Example 38] came in with a fraction unbound at 4 h, 10 µM above 0.1.
The same measure, in the same setting: next, `CC(C)C(=O)OCOC(=O)Nc1cc(C[C@H]2C(=O)N(C(=O)N[C@H](C)c3ccc4c(c3)OC(F)(F)O4)[C@@H]2C(=O)O)ccn1` [Example 100]: below 0.02; `O=C(O)[C@@H]1[C@@H](CCc2cccc(Cl)c2)C(=O)N1C(=O)N[C@@H](C1CCCCC1)C(F)(F)F` [Example 134]: below 0.02; `Nc1cc(C[C@H]2C(=O)N(C(=O)N[C@@H](C3CCCCC3)C(F)(F)F)[C@@H]2C(=O)O)ccn1` [Example 88]: above 0.1.
On the same count and under the same terms, the value for `C[C@@H](NC(=O)N1C(=O)[C@H](Cc2ccncc2)[C@H]1C(=O)O)c1ccc2c(c1)OC(F)(F)O2` [Example 169] was 0.02 to 0.1.

Tested on in the next data set: not listed separately
In words: physchem. In kind it is physicochemical. The note with it: pH 7.4, aqueous buffer, kinetic from dmso stock. The method, then: The test compound was prepared at 200 μM in PBS from a 10 mM DMSO stock solution. The final DMSO concentration was 2%. The PBS buffer samples were mixed thoroughly followed by incubation at room temperature for 24 h. At the end of the incubation, the PBS buffer samples were centrifuged and supernatants analyzed by HPLC.
Usually solubility stands for how much of the substance goes into solution per volume. A lower solubility goes with little dissolved substance. In turn, `C[C@@H](NC(=O)N1C(=O)[C@H](Cc2ccnc(N)c2)[C@H]1C(=O)O)C1CCCCC1` [Example 38] returned a solubility at 4 h above 100 µM.
As for `CC(C)C(=O)OCOC(=O)Nc1cc(C[C@H]2C(=O)N(C(=O)N[C@H](C)c3ccc4c(c3)OC(F)(F)O4)[C@@H]2C(=O)O)ccn1` [Example 100], the solubility at 4 h is above 100 µM.
Same read-out and setting: the value for `O=C(O)[C@@H]1[C@@H](CCc2cccc(Cl)c2)C(=O)N1C(=O)N[C@@H](C1CCCCC1)C(F)(F)F` [Example 134] was above 100 µM; that for `Nc1cc(C[C@H]2C(=O)N(C(=O)N[C@@H](C3CCCCC3)C(F)(F)F)[C@@H]2C(=O)O)ccn1` [Example 88] was above 100 µM; that for `C[C@@H](NC(=O)N1C(=O)[C@H](Cc2ccncc2)[C@H]1C(=O)O)c1ccc2c(c1)OC(F)(F)O2` [Example 169] was above 100 µM.

Tested on in another data set: not listed separately
Description: in vitro. The note with it: both, human, microsomes, pH 7.4. The method, then: The following procedure was used to determine the stability of a test compound in pooled liver microsomes from human (mixed gender) in 96-well plate format. The test compound was quantified at five time points by HPLC-MS/MS analysis. The final microsomal protein concentration in the assay was 0.1 mg/mL. […] The test compound was pre-incubated with human liver microsomes in phosphate buffer (pH 7.4) for 5 min in a 37° C. shaking waterbath. The reaction was initiated by adding NADPH-generating system and incubated for 0, 15, 30, 45, and 60 minutes. The reaction was stopped by transferring the incubation mixture to acetonitrile/methanol. Samples were then mixed and centrifuged and the supernatants used for HPLC-MS/MS analysis. Peak areas corresponding to the test compound were recorded. The compound remaining was calculated by comparing the peak area at each time point to time zero.
Regarding `C[C@@H](NC(=O)N1C(=O)[C@H](Cc2ccnc(N)c2)[C@H]1C(=O)O)C1CCCCC1` [Example 38], the half-life at 0.1 µM was above 1 h.
On the same count and under the same terms, the value for `CC(C)C(=O)OCOC(=O)Nc1cc(C[C@H]2C(=O)N(C(=O)N[C@H](C)c3ccc4c(c3)OC(F)(F)O4)[C@@H]2C(=O)O)ccn1` [Example 100] was below 0.5 h.
Still for that read-out and setting: the value for `O=C(O)[C@@H]1[C@@H](CCc2cccc(Cl)c2)C(=O)N1C(=O)N[C@@H](C1CCCCC1)C(F)(F)F` [Example 134] was 0.5 to 1 h.
Still for that read-out and setting: the value for `Nc1cc(C[C@H]2C(=O)N(C(=O)N[C@@H](C3CCCCC3)C(F)(F)F)[C@@H]2C(=O)O)ccn1` [Example 88] was above 1 h; that for `C[C@@H](NC(=O)N1C(=O)[C@H](Cc2ccncc2)[C@H]1C(=O)O)c1ccc2c(c1)OC(F)(F)O2` [Example 169] was above 1 h.
